Measured values: US7118895B2, “Process for producing aglycon by using diglycosidase and flavor-improved food containing the aglycon and converting agent to be used in the process” (Amano Enzyme Inc., priority 2000, dated 2006)

Tested on: Crude diglycosidase
Assay: Examination of pH in the conversion into isoflavone aglycons by diglycosidase using soybean materials
Assay type: biochemical, Penicillium multicolor IAM7153
Conditions: for Decomposition efficiency of glycitin family in roasted soy flour / Decomposition efficiency of glycitin family in soymilk: 55° C.
Summary of the method: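 Each soybean material (50 mg) is suspended and set to a pH between 2 and 11. Crude diglycosidase, adjusted to 1.88 AU/mL in enzyme solution of the same pH, is added, and the mixture is incubated at 55° C. Ethanol is added at 0, 1, 3 and 6 h, then supernatants go to HPLC.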

[1] = pH6.6, heat treatment of enzyme: no, reaction time 0 h
[2] = pH6.6, heat treatment of enzyme: no, reaction time 1 h
[3] = pH6.6, heat treatment of enzyme: no, reaction time 3 h
[4] = pH6.6, heat treatment of enzyme: no, reaction time 6 h
[5] = pH6.6, heat treatment of enzyme: yes, reaction time 6 h

COc1cc2c(=O)c(-c3ccc(O)cc3)coc2cc1O[C@@H]1O[C@H](CO)[C@@H](O)[C@H](O)[C@H]1O [glycitin]
Decomposition efficiency of glycitin family in concentrated soybean protein (pH1.6, heat treatment of enzyme: no, reaction time 0 h): 52.3%
Decomposition efficiency of glycitin family in concentrated soybean protein (pH1.6, heat treatment of enzyme: no, reaction time 1 h): 52.9%
Decomposition efficiency of glycitin family in concentrated soybean protein (pH1.6, heat treatment of enzyme: no, reaction time 3 h): 54.3%
Decomposition efficiency of glycitin family in concentrated soybean protein (pH1.6, heat treatment of enzyme: no, reaction time 6 h): 56.1%
Decomposition efficiency of glycitin family in concentrated soybean protein (pH1.6, heat treatment of enzyme: yes, reaction time 6 h): 57.9%
Decomposition efficiency of glycitin family in roasted soy flour (pH2, heat treatment of enzyme no, reaction time 0 h): 56.8
Decomposition efficiency of glycitin family in roasted soy flour (pH2, heat treatment of enzyme no, reaction time 1 h): 56.6
Decomposition efficiency of glycitin family in roasted soy flour (pH2, heat treatment of enzyme no, reaction time 3 h): 56.3
Decomposition efficiency of glycitin family in roasted soy flour (pH2, heat treatment of enzyme no, reaction time 6 h): 54.4
Decomposition efficiency of glycitin family in roasted soy flour (pH2, heat treatment of enzyme yes, reaction time 6 h): 54.4
Decomposition efficiency of glycitin family in soymilk (pH2.3, heat treatment of enzyme no, reaction time 0 h): 50.2
Decomposition efficiency of glycitin family in soymilk (pH2.3, heat treatment of enzyme no, reaction time 1 h): not detected
Decomposition efficiency of glycitin family in soymilk (pH2.3, heat treatment of enzyme no, reaction time 3 h): not detected
Decomposition efficiency of glycitin family in soymilk (pH2.3, heat treatment of enzyme no, reaction time 6 h): not detected
Decomposition efficiency of glycitin family in soymilk (pH2.3, heat treatment of enzyme yes, reaction time 6 h): 51.7
Decomposition efficiency of glycitin family in defatted soybean (pH2.6, heat treatment of enzyme: no, reaction time 0 h): not detected
Decomposition efficiency of glycitin family in defatted soybean (pH2.6, heat treatment of enzyme: no, reaction time 1 h): not detected
Decomposition efficiency of glycitin family in defatted soybean (pH2.6, heat treatment of enzyme: no, reaction time 3 h): not detected
Decomposition efficiency of glycitin family in defatted soybean (pH2.6, heat treatment of enzyme: no, reaction time 6 h): not detected
Decomposition efficiency of glycitin family in defatted soybean (pH2.6, heat treatment of enzyme: yes, reaction time 6 h): not detected
Decomposition efficiency of glycitin family in concentrated soybean protein (pH2.7, heat treatment of enzyme: no, reaction time 0 h): 52.3%
Decomposition efficiency of glycitin family in concentrated soybean protein (pH2.7, heat treatment of enzyme: no, reaction time 1 h): 38.0%
Decomposition efficiency of glycitin family in concentrated soybean protein (pH2.7, heat treatment of enzyme: no, reaction time 3 h): 37.2%
Decomposition efficiency of glycitin family in concentrated soybean protein (pH2.7, heat treatment of enzyme: no, reaction time 6 h): 33.7%
Decomposition efficiency of glycitin family in concentrated soybean protein (pH2.7, heat treatment of enzyme: yes, reaction time 6 h): 52.7%
Decomposition efficiency of glycitin family in roasted soy flour (pH3, heat treatment of enzyme no, reaction time 0 h): 56.8
Decomposition efficiency of glycitin family in roasted soy flour (pH3, heat treatment of enzyme no, reaction time 1 h): not detected
Decomposition efficiency of glycitin family in roasted soy flour (pH3, heat treatment of enzyme no, reaction time 3 h): not detected
Decomposition efficiency of glycitin family in roasted soy flour (pH3, heat treatment of enzyme no, reaction time 6 h): not detected
Decomposition efficiency of glycitin family in roasted soy flour (pH3, heat treatment of enzyme yes, reaction time 6 h): 55.1
Decomposition efficiency of glycitin family in defatted soybean (pH3.4, heat treatment of enzyme: no, reaction time 0 h): not detected
Decomposition efficiency of glycitin family in defatted soybean (pH3.4, heat treatment of enzyme: no, reaction time 1 h): not detected
Decomposition efficiency of glycitin family in defatted soybean (pH3.4, heat treatment of enzyme: no, reaction time 3 h): not detected
Decomposition efficiency of glycitin family in defatted soybean (pH3.4, heat treatment of enzyme: no, reaction time 6 h): not detected
Decomposition efficiency of glycitin family in defatted soybean (pH3.4, heat treatment of enzyme: yes, reaction time 6 h): not detected
Decomposition efficiency of glycitin family in soymilk (pH3.5, heat treatment of enzyme no, reaction time 0 h): 50.2
Decomposition efficiency of glycitin family in soymilk (pH3.5, heat treatment of enzyme no, reaction time 1 h): not detected
Decomposition efficiency of glycitin family in soymilk (pH3.5, heat treatment of enzyme no, reaction time 3 h): not detected
Decomposition efficiency of glycitin family in soymilk (pH3.5, heat treatment of enzyme no, reaction time 6 h): not detected
Decomposition efficiency of glycitin family in soymilk (pH3.5, heat treatment of enzyme yes, reaction time 6 h): 54.2
Decomposition efficiency of glycitin family in concentrated soybean protein (pH3.7, heat treatment of enzyme: no, reaction time 0 h): 52.4%
Decomposition efficiency of glycitin family in concentrated soybean protein (pH3.7, heat treatment of enzyme: no, reaction time 1 h): not detected
Decomposition efficiency of glycitin family in concentrated soybean protein (pH3.7, heat treatment of enzyme: no, reaction time 3 h): not detected
Decomposition efficiency of glycitin family in concentrated soybean protein (pH3.7, heat treatment of enzyme: no, reaction time 6 h): not detected
Decomposition efficiency of glycitin family in concentrated soybean protein (pH3.7, heat treatment of enzyme: yes, reaction time 6 h): 52.4%
Decomposition efficiency of glycitin family in roasted soy flour (pH4, heat treatment of enzyme no, reaction time 0 h): 56.6
Decomposition efficiency of glycitin family in roasted soy flour (pH4, heat treatment of enzyme no, reaction time 1 h): not detected
Decomposition efficiency of glycitin family in roasted soy flour (pH4, heat treatment of enzyme no, reaction time 3 h): not detected
Decomposition efficiency of glycitin family in roasted soy flour (pH4, heat treatment of enzyme no, reaction time 6 h): not detected
Decomposition efficiency of glycitin family in roasted soy flour (pH4, heat treatment of enzyme yes, reaction time 6 h): 55.1
Decomposition efficiency of glycitin family in soymilk (pH4.8, heat treatment of enzyme no, reaction time 0 h): 50.7
Decomposition efficiency of glycitin family in soymilk (pH4.8, heat treatment of enzyme no, reaction time 1 h): not detected
Decomposition efficiency of glycitin family in soymilk (pH4.8, heat treatment of enzyme no, reaction time 3 h): not detected
Decomposition efficiency of glycitin family in soymilk (pH4.8, heat treatment of enzyme no, reaction time 6 h): not detected
Decomposition efficiency of glycitin family in soymilk (pH4.8, heat treatment of enzyme yes, reaction time 6 h): 54.3
Decomposition efficiency of glycitin family in defatted soybean (pH4.8, heat treatment of enzyme: no, reaction time 0 h): not detected
Decomposition efficiency of glycitin family in defatted soybean (pH4.8, heat treatment of enzyme: no, reaction time 1 h): not detected
Decomposition efficiency of glycitin family in defatted soybean (pH4.8, heat treatment of enzyme: no, reaction time 3 h): not detected
Decomposition efficiency of glycitin family in defatted soybean (pH4.8, heat treatment of enzyme: no, reaction time 6 h): not detected
Decomposition efficiency of glycitin family in defatted soybean (pH4.8, heat treatment of enzyme: yes, reaction time 6 h): not detected
Decomposition efficiency of glycitin family in roasted soy flour (pH5, heat treatment of enzyme no, reaction time 0 h): 56.6
Decomposition efficiency of glycitin family in roasted soy flour (pH5, heat treatment of enzyme no, reaction time 1 h): not detected
Decomposition efficiency of glycitin family in roasted soy flour (pH5, heat treatment of enzyme no, reaction time 3 h): not detected
Decomposition efficiency of glycitin family in roasted soy flour (pH5, heat treatment of enzyme no, reaction time 6 h): not detected
Decomposition efficiency of glycitin family in roasted soy flour (pH5, heat treatment of enzyme yes, reaction time 6 h): 55.4
Decomposition efficiency of glycitin family in concentrated soybean protein (pH5.1, heat treatment of enzyme: no, reaction time 0 h): 52.4%
Decomposition efficiency of glycitin family in concentrated soybean protein (pH5.1, heat treatment of enzyme: no, reaction time 1 h): 4.1%
Decomposition efficiency of glycitin family in concentrated soybean protein (pH5.1, heat treatment of enzyme: no, reaction time 3 h): not detected
Decomposition efficiency of glycitin family in concentrated soybean protein (pH5.1, heat treatment of enzyme: no, reaction time 6 h): not detected
Decomposition efficiency of glycitin family in concentrated soybean protein (pH5.1, heat treatment of enzyme: yes, reaction time 6 h): 52.3%
Decomposition efficiency of glycitin family in defatted soybean (pH5.4, heat treatment of enzyme: no, reaction time 0 h): not detected
Decomposition efficiency of glycitin family in defatted soybean (pH5.4, heat treatment of enzyme: no, reaction time 1 h): not detected
Decomposition efficiency of glycitin family in defatted soybean (pH5.4, heat treatment of enzyme: no, reaction time 3 h): not detected
Decomposition efficiency of glycitin family in defatted soybean (pH5.4, heat treatment of enzyme: no, reaction time 6 h): not detected
Decomposition efficiency of glycitin family in defatted soybean (pH5.4, heat treatment of enzyme: yes, reaction time 6 h): not detected
Decomposition efficiency of glycitin family in soymilk (pH6.2, heat treatment of enzyme no, reaction time 0 h): 50.7
Decomposition efficiency of glycitin family in soymilk (pH6.2, heat treatment of enzyme no, reaction time 1 h): not detected
Decomposition efficiency of glycitin family in soymilk (pH6.2, heat treatment of enzyme no, reaction time 3 h): not detected
Decomposition efficiency of glycitin family in soymilk (pH6.2, heat treatment of enzyme no, reaction time 6 h): not detected
Decomposition efficiency of glycitin family in soymilk (pH6.2, heat treatment of enzyme yes, reaction time 6 h): 54.2
Decomposition efficiency of glycitin family in roasted soy flour (pH6.5, heat treatment of enzyme no, reaction time 0 h): 55.9
Decomposition efficiency of glycitin family in roasted soy flour (pH6.5, heat treatment of enzyme no, reaction time 1 h): not detected
Decomposition efficiency of glycitin family in roasted soy flour (pH6.5, heat treatment of enzyme no, reaction time 3 h): not detected
Decomposition efficiency of glycitin family in roasted soy flour (pH6.5, heat treatment of enzyme no, reaction time 6 h): not detected
Decomposition efficiency of glycitin family in roasted soy flour (pH6.5, heat treatment of enzyme yes, reaction time 6 h): 54.8
Decomposition efficiency of glycitin family in concentrated soybean protein [1]: 52.2%
Decomposition efficiency of glycitin family in defatted soybean [1]: not detected
Decomposition efficiency of glycitin family in concentrated soybean protein [2]: 22.6%
Decomposition efficiency of glycitin family in defatted soybean [2]: not detected
Decomposition efficiency of glycitin family in concentrated soybean protein [3]: 6.9%
Decomposition efficiency of glycitin family in defatted soybean [3]: not detected
Decomposition efficiency of glycitin family in concentrated soybean protein [4]: 2.0%
Decomposition efficiency of glycitin family in defatted soybean [4]: not detected
Decomposition efficiency of glycitin family in concentrated soybean protein [5]: 53.3%
Decomposition efficiency of glycitin family in defatted soybean [5]: not detected
Decomposition efficiency of glycitin family in soymilk (pH7.2, heat treatment of enzyme no, reaction time 0 h): 50.0
Decomposition efficiency of glycitin family in soymilk (pH7.2, heat treatment of enzyme no, reaction time 1 h): not detected
Decomposition efficiency of glycitin family in soymilk (pH7.2, heat treatment of enzyme no, reaction time 3 h): not detected
Decomposition efficiency of glycitin family in soymilk (pH7.2, heat treatment of enzyme no, reaction time 6 h): not detected
Decomposition efficiency of glycitin family in soymilk (pH7.2, heat treatment of enzyme yes, reaction time 6 h): 56.9
Decomposition efficiency of glycitin family in defatted soybean (pH7.8, heat treatment of enzyme: no, reaction time 0 h): not detected
Decomposition efficiency of glycitin family in defatted soybean (pH7.8, heat treatment of enzyme: no, reaction time 1 h): not detected
Decomposition efficiency of glycitin family in defatted soybean (pH7.8, heat treatment of enzyme: no, reaction time 3 h): not detected
Decomposition efficiency of glycitin family in defatted soybean (pH7.8, heat treatment of enzyme: no, reaction time 6 h): not detected
Decomposition efficiency of glycitin family in defatted soybean (pH7.8, heat treatment of enzyme: yes, reaction time 6 h): not detected
Decomposition efficiency of glycitin family in roasted soy flour (pH8.5, heat treatment of enzyme no, reaction time 0 h): 59.4
Decomposition efficiency of glycitin family in roasted soy flour (pH8.5, heat treatment of enzyme no, reaction time 1 h): 39.4
Decomposition efficiency of glycitin family in roasted soy flour (pH8.5, heat treatment of enzyme no, reaction time 3 h): 29.3
Decomposition efficiency of glycitin family in roasted soy flour (pH8.5, heat treatment of enzyme no, reaction time 6 h): 22.4
Decomposition efficiency of glycitin family in roasted soy flour (pH8.5, heat treatment of enzyme yes, reaction time 6 h): 59.2
Decomposition efficiency of glycitin family in concentrated soybean protein (pH8.6, heat treatment of enzyme: no, reaction time 0 h): 54.9%
Decomposition efficiency of glycitin family in concentrated soybean protein (pH8.6, heat treatment of enzyme: no, reaction time 1 h): 51.6%
Decomposition efficiency of glycitin family in concentrated soybean protein (pH8.6, heat treatment of enzyme: no, reaction time 3 h): 45.9%
Decomposition efficiency of glycitin family in concentrated soybean protein (pH8.6, heat treatment of enzyme: no, reaction time 6 h): 36.7%
Decomposition efficiency of glycitin family in concentrated soybean protein (pH8.6, heat treatment of enzyme: yes, reaction time 6 h): 56.8%
Decomposition efficiency of glycitin family in soymilk (pH11.6, heat treatment of enzyme no, reaction time 0 h): 54.3
Decomposition efficiency of glycitin family in soymilk (pH11.6, heat treatment of enzyme no, reaction time 1 h): not detected
Decomposition efficiency of glycitin family in soymilk (pH11.6, heat treatment of enzyme no, reaction time 3 h): not detected
Decomposition efficiency of glycitin family in soymilk (pH11.6, heat treatment of enzyme no, reaction time 6 h): not detected
Decomposition efficiency of glycitin family in soymilk (pH11.6, heat treatment of enzyme yes, reaction time 6 h): 59.7
